Assay [1] concerns the target Delta-5-Desaturase (D5D) (Mus musculus (Mouse), UniProt Q920L1). Put plainly: In vivo measurement of Delta-5-Desaturase inhibitory activity (plasma AA/DGLA ratio in DIO mice). As to conditions: single oral dose 30 mg/kg, read-out: Average % D5D Inhibition expressed as Plasma Endogenous AA/DGLA Ratio. How it is done:
In vivo Measurement of Delta-5-Desaturase Inhibitory Activity
Diet-induced obese (DIO; Jackson Laboratories strain #3800050) mice were used to screen for pharmacodynamic (PD) activity of test compounds. Generally, 14 to 24 week old DIO mice, were administered test compounds formulated in the vehicle of 2% hydroxypropyl methylcellulose (HPMC) and 1% Tween80. Animals were dosed on body weight by oral gavage with a single dose (30 mg/kg) for PD studies. Necropsy included plasma collection for PUFA analysis. 10 μl of plasma or standards diluted in surrogate matrix (65 g/l bovine serum albumin in Dulbecco's phosphate-buffered saline) were mixed with 10 μl of an internal standard (100 μM alpha-linolenic acid-d14 (ALA-d14, Cayman Chemical)) in a 96 well plate. 100 μl of 2N NAOH was added to the mixture for subsequent saponification at 65° C. for 1 hour. The mixture was then acidified with 50 μl of formic acid followed by two consecutive hexane extractions. Hexane (500 μl) was added and the mixture thoroughly mixed by vortexing, followed by centrifugation at 4,000 rpm for 15 min. The hexane phase was transferred to a new 1 ml 96 well plate and the remaining aqueous layer was extracted with hexane. The organic extracts were combined and the solvent was removed by placing the plate under nitrogen gas at 55° C. 250 μl of 90% methanol was added to the plate followed by vortexing for 2 minutes. 200 μl of the samples were transferred to a new 96 well polypropylene plate. The samples were analyzed on a LC-MS/MS for the following PUFAs: arachidonic acid (AA), dihomo-gamma-linolenic acid (DGLA), with ALA-d14 as the internal standard. Description of the LC-MS/MS method: 5 μl of sample was injected onto a Poroshell 120 EC-C18 3.0×50 mm, 1.9 μm id column. […] The PUFA peak areas were quantified by using the SCIEX Analyst software. […] The relative decrease of the AA/DGLA ratio of the test compound administered group relative to the vehicle administered group was calculated and used as an index for the degree of D5D inhibition.
The results presented in Table 27 were obtained using certain compounds described herein in the in vivo protocol described above.

Assay [2] has as its target Delta-5-Desaturase (D5D) (Homo sapiens (Human), UniProt O60427). Put plainly: In vitro measurement of Delta-5-Desaturase inhibitory activity using DGLA-CoA and Arachidonyl-CoA mass spectrometric assays. In kind it is biochemical. Particulars: membrane preparations of D5D-overexpressing HEK293 6E cells; averaged over at least two independent runs. A digest of the protocol:
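DGLA-CoA and arachidonyl-CoA were read by RapidFire SPE triple-quad MS (negative mode, MRM) after a 1 h ambient-temperature reaction quenched with acetonitrile. Enzyme was D5D-overexpressing HEK293 6E membranes at 10 μg/mL final; substrate solution held 0.01 mM DGLA plus NADH, ATP and CoA. Inhibition was referenced to DMSO and no-enzyme wells; 4PL IC50.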

The source of these data is patent US12473289B2, “Heterocyclic compounds as delta-5 desaturase inhibitors and methods of use” (Amgen Inc., priority 2019, dated 2025).

The term IC50 denotes the concentration at which inhibition is half-maximal. A low value points to greater potency.

A value given as a limit tells only on which side of the number the result lay.

Delta-5-Desaturase (D5D) (Mus musculus (Mouse), UniProt Q920L1), sequence (Q920L1 whole entry): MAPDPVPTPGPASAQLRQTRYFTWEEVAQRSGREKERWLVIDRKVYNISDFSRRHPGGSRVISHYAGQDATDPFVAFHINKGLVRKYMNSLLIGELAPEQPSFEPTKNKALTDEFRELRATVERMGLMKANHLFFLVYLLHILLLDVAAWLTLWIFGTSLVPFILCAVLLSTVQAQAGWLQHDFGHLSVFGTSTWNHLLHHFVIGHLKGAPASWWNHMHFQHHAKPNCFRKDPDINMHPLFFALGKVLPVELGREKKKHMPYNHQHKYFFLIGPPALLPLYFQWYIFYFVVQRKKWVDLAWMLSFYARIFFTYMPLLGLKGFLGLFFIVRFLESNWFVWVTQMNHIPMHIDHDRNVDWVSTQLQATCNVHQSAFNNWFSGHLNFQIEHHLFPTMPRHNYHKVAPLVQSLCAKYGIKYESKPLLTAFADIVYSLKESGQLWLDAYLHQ
Delta-5-Desaturase (D5D) (Homo sapiens (Human), UniProt O60427), sequence (O60427 whole entry, species assumed): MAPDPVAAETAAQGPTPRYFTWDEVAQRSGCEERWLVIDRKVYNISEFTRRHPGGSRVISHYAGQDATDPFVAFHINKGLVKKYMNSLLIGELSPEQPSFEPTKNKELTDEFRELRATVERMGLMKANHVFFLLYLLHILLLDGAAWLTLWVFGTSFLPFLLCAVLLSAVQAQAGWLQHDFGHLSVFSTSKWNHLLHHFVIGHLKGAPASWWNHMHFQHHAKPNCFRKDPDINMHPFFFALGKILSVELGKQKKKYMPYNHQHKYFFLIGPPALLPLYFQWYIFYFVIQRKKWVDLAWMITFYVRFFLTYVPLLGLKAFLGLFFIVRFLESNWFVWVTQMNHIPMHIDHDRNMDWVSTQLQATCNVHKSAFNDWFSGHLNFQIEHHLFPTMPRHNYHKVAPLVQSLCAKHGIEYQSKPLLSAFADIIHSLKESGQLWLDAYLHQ

In the case of `O=c1c(-c2cnn(CC(F)(F)C(F)(F)F)c2)c(C(F)(F)F)nc2ccc(Cl)cn12` [Example 35, 7-Chloro-3-[1-(2,2,3,3,3-pentafluoropropyl)-1H-pyrazol-4-yl]-2-(trifluoromethyl)-4H-pyrido[1,2-a]pyrimidin-4-one], the inhibition in vivo at 30 mg/kg at Delta-5-Desaturase (D5D) [1] worked out at 75%. This molecule also came in with an IC50 on Delta-5-Desaturase (D5D) [2] of 3.8 nM. For the molecule `COc1ccn2c(=O)c(-c3ccc(OCC(F)(F)F)nc3)c(C(F)(F)F)nc2c1` [Example 7-4], the inhibition in vivo at 30 mg/kg on Delta-5-Desaturase (D5D) [1] turned out to be 60%. The half-maximal inhibitory concentration (IC50) at Delta-5-Desaturase (D5D) [2] came to 27 nM. On the same counts, the results for `COc1ccn2c(=O)c(-c3ccc(OCC(F)(F)F)cc3)c(C(F)(F)F)nc2n1` [Example 1-50, 8-methoxy-3-(4-(2,2,2-trifluoroethoxy)phenyl)-2-(trifluoromethyl)-4H-pyrimido[1,2-a]pyrimidin-4-one] are 73% and 16.8 nM. In the same order, the values of `COc1ccn2c(=O)c(-c3ccc(OCC4CC4(F)F)cc3)c(C(F)(F)F)nc2c1` (stereo not drawn) [Example 1-4, 3-(4-((2,2-difluorocyclopropyl)methoxy)phenyl)-8-methoxy-2-(trifluoromethyl)-4H-pyrido[1,2-a]pyrimidin-4-one] are 60% and 6.6 nM.

In the case of `COc1ccn2c(=O)c(-c3ccc(OCC(F)(F)F)cc3)c(OC)nc2c1` [Example 1-80, 2,8-dimethoxy-3-(4-(2,2,2-trifluoroethoxy)phenyl)-4H-pyrido[1,2-a]pyrimidin-4-one], the inhibition in vivo at 30 mg/kg at Delta-5-Desaturase (D5D) [1] was 57%. In addition, the IC50 against Delta-5-Desaturase (D5D) [2] turned out to be 12.5 nM. On the same counts, the results for `COc1ccn2c(=O)c(-c3ccc(OC(F)(F)F)cc3)c(C(F)(F)F)nc2n1` [Example 1-72, 8-methoxy-3-(4-(trifluoromethoxy)phenyl)-2-(trifluoromethyl)-4H-pyrimido[1,2-a]pyrimidin-4-one] are 54% and 57.2 nM. For the molecule `CNc1ccn2c(=O)c(-c3ccc(OCC(F)(F)F)cc3)c(C(F)(F)F)nc2c1` [Example 1-29, 8-(methylamino)-3-(4-(2,2,2-trifluoroethoxy)phenyl)-2-(trifluoromethyl)-4H-pyrido[1,2-a]pyrimidin-4-one], at Delta-5-Desaturase (D5D) [1], the inhibition in vivo at 30 mg/kg stood at 77%. Besides, the IC50 on Delta-5-Desaturase (D5D) [2] turned out to be 7 nM. On the same counts, the results for `COc1ccn2c(=O)c(-c3ccc(OCC(C)(F)F)cc3)c(C(F)(F)F)nc2c1` [Example 9-2, 3-(4-(2,2-difluoropropoxy)phenyl)-8-methoxy-2-(trifluoromethyl)-4H-pyrido[1,2-a]pyrimidin-4-one] are 67% and 11.3 nM. With `O=c1c(-c2ccc(OCC(F)(F)F)cc2)c(C(F)(F)F)nc2cc(CO)ccn12` [Example 13-3, 8-(hydroxymethyl)-3-(4-(2,2,2-trifluoroethoxy)phenyl)-2-(trifluoromethyl)-4H-pyrido[1,2-a]pyrimidin-4-one], on Delta-5-Desaturase (D5D) [1], the inhibition in vivo at 30 mg/kg amounted to 77%. The same molecule yielded a 50% inhibitory concentration (IC50) on Delta-5-Desaturase (D5D) [2] of 5.6 nM. In the same order, the values of `O=c1c(-c2cnn(CC(F)(F)C(F)(F)F)c2)c(C(F)(F)F)nc2cc(OCF)ccn12` [Example 45, 8-(Fluoromethoxy)-3-[1-(2,2,3,3,3-pentafluoropropyl)-1H-pyrazol-4-yl]-2-(trifluoromethyl)-4H-pyrido[1,2-a]pyrimidin-4-one] are 62% and 10.1 nM. Regarding `CNc1ccn2c(=O)c(-c3cnn(CC(F)(F)C(F)(F)F)c3)c(C(F)(F)F)nc2c1` [Example 1-23, 8-(methylamino)-3-(1-(2,2,3,3,3-pentafluoropropyl)-1H-pyrazol-4-yl)-2-(trifluoromethyl)-4H-pyrido[1,2-a]pyrimidin-4-one], the inhibition in vivo at 30 mg/kg on Delta-5-Desaturase (D5D) [1] worked out at 57%. This molecule also gave an IC50 against Delta-5-Desaturase (D5D) [2] of 19.9 nM.

For the molecule `COc1ccn2c(=O)c(-c3ccc(OCC(F)(F)F)c(F)c3)c(C(F)(F)F)nc2n1` [Example 1-73, 3-(3-fluoro-4-(2,2,2-trifluoroethoxy)phenyl)-8-methoxy-2-(trifluoromethyl)-4H-pyrimido[1,2-a]pyrimidin-4-one], the inhibition in vivo at 30 mg/kg at Delta-5-Desaturase (D5D) [1] was found to be 72%. This molecule also registered a half-maximal inhibitory concentration (IC50) against Delta-5-Desaturase (D5D) [2] of 22 nM. Take `COc1ccn2c(=O)c(-c3cnn(CC(C)(F)F)c3)c(C(F)(F)F)nc2c1` [Example 1-39, 3-(1-(2,2-difluoropropyl)-1H-pyrazol-4-yl)-8-methoxy-2-(trifluoromethyl)-4H-pyrido[1,2-a]pyrimidin-4-one]: the inhibition in vivo at 30 mg/kg at Delta-5-Desaturase (D5D) [1] was determined as 62%. Further, 42.2 nM corresponded to half-maximal inhibition against Delta-5-Desaturase (D5D) [2] (IC50). In the same order, the values of `Nc1ccn2c(=O)c(-c3ccc(OCC(F)(F)F)cc3)c(C(F)(F)F)nc2n1` [Example 14-2, 8-amino-3-(4-(2,2,2-trifluoroethoxy)phenyl)-2-(trifluoromethyl)-4H-pyrimido[1,2-a]pyrimidin-4-one] are 73% and 35.7 nM. As for `O=c1c(-c2ccc(OCC(F)(F)F)cc2)c(C(F)(F)F)nc2ccccn12` [Example 1-42, 3-(4-(2,2,2-trifluoroethoxy)phenyl)-2-(trifluoromethyl)-4H-pyrido[1,2-a]pyrimidin-4-one], the inhibition in vivo at 30 mg/kg on Delta-5-Desaturase (D5D) [1] amounted to 64%. At Delta-5-Desaturase (D5D) [2], this molecule registered an IC50 of 10.4 nM. On to `COc1ccn2c(=O)c(-c3ccc(OCC(F)(F)F)cc3C)c(C(F)(F)F)nc2c1` [Example 4-3, 8-methoxy-3-(2-methyl-4-(2,2,2-trifluoroethoxy)phenyl)-2-(trifluoromethyl)-4H-pyrido[1,2-a]pyrimidin-4-one], for which the inhibition in vivo at 30 mg/kg at Delta-5-Desaturase (D5D) [1] turned out to be 60%. This molecule also gave an IC50 at Delta-5-Desaturase (D5D) [2] of 22 nM.

As to `COc1ccn2c(=O)c(-c3cnn(CCCC(F)(F)F)c3)c(C(F)(F)F)nc2c1` [Example 1-75, 8-methoxy-3-(1-(4,4,4-trifluorobutyl)-1H-pyrazol-4-yl)-2-(trifluoromethyl)-4H-pyrido[1,2-a]pyrimidin-4-one], the inhibition in vivo at 30 mg/kg at Delta-5-Desaturase (D5D) [1] turned out to be 77%. The molecule also displayed an IC50 at Delta-5-Desaturase (D5D) [2] of 29.6 nM. For the molecule `COc1ccn2c(=O)c(-c3ccc(OC(C)(C)C#N)cc3)c(C(F)(F)F)nc2c1` [Example 24, 2-(4-(8-Methoxy-4-oxo-2-(trifluoromethyl)-4H-pyrido[1,2-a]pyrimidin-3-yl)phenoxy)-2-methylpropanenitrile], the inhibition in vivo at 30 mg/kg on Delta-5-Desaturase (D5D) [1] stood at 70%. Besides, the IC50 on Delta-5-Desaturase (D5D) [2] is 28.9 nM. For `COc1ccn2c(=O)c(-c3ccc(OCC(F)(F)F)cc3F)c(C(F)(F)F)nc2c1` [Example 1-20, 3-(2-fluoro-4-(2,2,2-trifluoroethoxy)phenyl)-8-methoxy-2-(trifluoromethyl)-4H-pyrido[1,2-a]pyrimidin-4-one], the inhibition in vivo at 30 mg/kg at Delta-5-Desaturase (D5D) [1] stood at 78%. At Delta-5-Desaturase (D5D) [2], this molecule had a concentration for half-maximal inhibition (IC50) of 8.9 nM. `COc1ccn2c(=O)c(-c3ccc(OCC(F)(F)F)cc3)c(CF)nc2c1` [Example 1-58, 2-(fluoromethyl)-8-methoxy-3-(4-(2,2,2-trifluoroethoxy)phenyl)-4H-pyrido[1,2-a]pyrimidin-4-one]: the inhibition in vivo at 30 mg/kg at Delta-5-Desaturase (D5D) [1] came out at 74%. Further, the half-maximal inhibitory concentration (IC50) at Delta-5-Desaturase (D5D) [2] is 66.1 nM. Take `COc1ccn2c(=O)c(-c3ccc(OC(F)(F)F)cc3F)c(C(F)(F)F)nc2c1` [Example 1-9, 3-(2-fluoro-4-(trifluoromethoxy)phenyl)-8-methoxy-2-(trifluoromethyl)-4H-pyrido[1,2-a]pyrimidin-4-one]: the inhibition in vivo at 30 mg/kg at Delta-5-Desaturase (D5D) [1] amounted to 35%. For `COc1ccn2c(=O)c(-c3ccc(OCC(F)(F)F)c(F)c3)c(C(F)(F)F)nc2c1` [Example 1-48, 3-(3-fluoro-4-(2,2,2-trifluoroethoxy)phenyl)-8-methoxy-(trifluoromethyl)-4H-pyrido[1,2-a]pyrimidin-4-one], at Delta-5-Desaturase (D5D) [1], the inhibition in vivo at 30 mg/kg turned out to be 66%. Also, inhibition against Delta-5-Desaturase (D5D) [2] was half-maximal at 5.1 nM (IC50). Turning to `Nc1ccn2c(=O)c(-c3ccc(OCC(F)(F)F)cc3)c(C(F)(F)F)nc2c1` [Example 6-2, 8-amino-3-(4-(2,2,2-trifluoroeth-oxy)phenyl)-2-(trifluoromethyl)-4H-pyrido[1,2-a]pyrimidin-4-one], the inhibition in vivo at 30 mg/kg on Delta-5-Desaturase (D5D) [1] stood at 66%. In turn, `Cc1cn2c(=O)c(-c3cnc(OCC(F)(F)F)nc3)c(C(F)(F)F)nc2cn1` [Example 39-30, 7-methyl-3-[2-(2,2,2-trifluoroethoxy)pyrimidin-5-yl]-2-(trifluoromethyl)-4H-pyrazino[1,2-a]pyrimidin-4-one] gave a concentration for half-maximal inhibition (IC50) against Delta-5-Desaturase (D5D) [2] of over 67000 nM.
